“And” between values parts separate entries of the source, which are not always exact repeats. Identical values can stand only once. Counter-ions that a name gives are not always drawn. Like-named read-outs stand apart in the source and are kept apart here.

For this experiment, the target named is T1, canine TRPM8 (Canis lupus familiaris, UniProt Q1A7N1).
T1 construct: expressed in transfected cells
Kind of experiment: In Vitro Canine TRPM8 Functional Assay (intracellular Ca2+ fluorescence, icilin activation, HEK293 cells). It counts as cell-based. Particulars: for IC50: HEK293 cells expressing canine TRPM8, icilin activation, individually measured values (batches/salt forms), read-out: IC50 (nM), in vitro TRP M8 Activity. In short, it runs like this: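 HEK293 cells expressing canine TRPM8 loaded with Calcium 3 dye, then stimulated with icilin; intracellular Ca2+ rise read on FLIPR or FDSS. Peak fluorescence minus basal normalized to percent maximal response; IC50 from sigmoidal nonlinear regression of quadruplicate wells.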

[1] abbreviates: HEK293, read-out: % Inh (%) @0.2 μM, in vitro TRP M8 Activity, 0.2 μM test compound, individually measured values.
[2] abbreviates: HEK293, 0.2 μM test compound, individually measured values, read-out: % Inh (%) @0.2 μM, in vitro TRP M8 Activity.

T1 sequence (Q1A7N1 1-1104): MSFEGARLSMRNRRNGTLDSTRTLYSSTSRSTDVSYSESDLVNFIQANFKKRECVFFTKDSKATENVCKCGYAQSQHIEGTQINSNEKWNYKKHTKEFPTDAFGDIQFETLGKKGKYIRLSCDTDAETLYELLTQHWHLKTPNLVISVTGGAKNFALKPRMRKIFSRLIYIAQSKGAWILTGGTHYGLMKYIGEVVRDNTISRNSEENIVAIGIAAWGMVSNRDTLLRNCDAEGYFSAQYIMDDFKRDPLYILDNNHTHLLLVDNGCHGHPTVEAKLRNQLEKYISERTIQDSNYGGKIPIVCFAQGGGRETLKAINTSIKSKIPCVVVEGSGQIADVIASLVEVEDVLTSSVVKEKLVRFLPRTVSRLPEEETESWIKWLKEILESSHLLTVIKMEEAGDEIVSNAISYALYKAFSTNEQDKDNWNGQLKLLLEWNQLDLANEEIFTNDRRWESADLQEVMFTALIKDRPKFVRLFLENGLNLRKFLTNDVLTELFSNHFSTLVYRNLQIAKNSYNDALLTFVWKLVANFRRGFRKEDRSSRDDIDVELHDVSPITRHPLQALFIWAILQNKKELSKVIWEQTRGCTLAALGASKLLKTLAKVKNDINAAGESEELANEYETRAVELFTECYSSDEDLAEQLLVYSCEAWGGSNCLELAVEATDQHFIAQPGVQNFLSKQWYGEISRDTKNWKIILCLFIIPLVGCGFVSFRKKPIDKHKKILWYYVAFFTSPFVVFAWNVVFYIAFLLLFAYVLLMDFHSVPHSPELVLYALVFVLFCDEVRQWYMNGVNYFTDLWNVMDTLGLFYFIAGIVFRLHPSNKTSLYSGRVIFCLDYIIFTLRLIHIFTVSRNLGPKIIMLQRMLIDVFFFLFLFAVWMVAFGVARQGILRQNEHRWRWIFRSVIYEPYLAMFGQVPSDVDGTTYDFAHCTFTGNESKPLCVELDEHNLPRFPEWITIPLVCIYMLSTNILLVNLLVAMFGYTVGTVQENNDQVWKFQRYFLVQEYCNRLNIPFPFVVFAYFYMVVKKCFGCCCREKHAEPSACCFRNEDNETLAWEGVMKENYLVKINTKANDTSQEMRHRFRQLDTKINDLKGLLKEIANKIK

Take `Cc1c(C(C)(C)C)nn(C)c1-c1nc2cc(-c3c(F)cccc3F)ccc2[nH]1` [Compound 95, 2-(5-tert-Butyl-2,4-dimethyl-2H-pyrazol-3-yl)-5-(2,6-difluoro-phenyl)-1H-benzimidazole hydrochloride]: the IC50 (in general, the concentration that gives 50% inhibition) worked out at 5.7 nM.

Regarding `Cn1nc(C(C)(C)C)c(C#N)c1-c1nc2cc(-c3ccccc3C(F)(F)F)cc(C(F)(F)F)c2[nH]1.[Na]` [Compound 149, 3-tert-Butyl-1-methyl-5-[7-trifluoromethyl-5-(2-trifluoromethyl-phenyl)-1H-benzimidazol-2-yl]-1H-pyrazole-4-carbonitrile sodium salt], the IC50 was 3.8 nM and 5.1 nM and 3.2 nM. In addition, under “0.2 μM test compound, individually measured values, sodium salt, 0.2 µM”, the “% Inh (%) @0.2 μM, in vitro TRP M8 Activity” value was determined as 99%. In addition, the inhibition at 0.2 µM under setting [1] was 100%.

On to `CCCc1cc(-c2nc3ccc(-c4ccccc4OC(F)(F)F)cc3[nH]2)on1` [Compound 19, 2-(3-Propylisoxazol-5-yl)-6-(2-trifluoromethoxyphenyl)-1H-benzimidazole hydrochloride], for which the IC50 came to 18 nM.

On to `Cn1nc(C(C)(C)C)c(C(F)(F)F)c1-c1nc2cc(-c3ccccc3F)cc(C(F)(F)F)c2[nH]1` [Compound 185, 2-(5-tert-Butyl-2-methyl-4-trifluoromethyl-2H-pyrazol-3-yl)-5-(2-fluoro-phenyl)-7-trifluoromethyl-1H-benzimidazole sodium salt], for which the IC50 was 13.8 nM. The inhibition at 0.2 µM under setting [2] was determined as 99%.

As for `Cn1nc(C2(C)CC2)cc1-c1nc2cc(-c3ccccc3C(F)(F)F)ccc2[nH]1` [Compound 52, 2-[2-Methyl-5-(1-methylcyclopropyl)-2H-pyrazol-3-yl]-5-(2-trifluoromethylphenyl)-1H-benzimidazole sodium salt], the IC50 was found to be 17.6 nM.

Regarding `Cn1nc(-c2nc3cc(-c4ccccc4C(F)(F)F)ccc3[nH]2)cc1C1CCC1` [Compound 91, 2-(5-Cyclobutyl-1-methyl-1H-pyrazol-3-yl)-5-(2-trifluoromethyl-phenyl)-1H-benzimidazole], the inhibition at 0.2 µM under setting [2] was 7%.

For the compound `CC(C)(C)c1cc(-c2nc3cc(-c4c(F)cccc4F)cc(C(F)(F)F)c3[nH]2)on1` [Compound 140, 2-(3-tert-Butyl-isoxazol-5-yl)-5-(2,6-difluoro-phenyl)-7-trifluoromethyl-1H-benzimidazole sodium salt], the IC50 is 4.5 nM and 7.4 nM. In addition, the inhibition at 0.2 µM under setting [1] was 100%.

For the compound `CC(C)Cc1cc(-c2nc3ccc(-c4ccccc4OC(F)(F)F)cc3[nH]2)on1` [Compound 23, 2-(3-Isobutylisoxazol-5-yl)-6-(2-trifluoromethoxyphenyl)-1H-benzimidazole hydrochloride], the IC50 was 30 nM.

As to `Cc1nc(C(C)(C)C)oc1-c1nc2cc(-c3ccccc3F)cc(C(F)(F)F)c2[nH]1` [Compound 175, 2-(2-tert-Butyl-4-methyl-oxazol-5-yl)-5-(2-fluoro-phenyl)-7-trifluoromethyl-1H-benzimidazole hydrochloride], under setting [2], the inhibition at 0.2 µM is 48%.

With `Cn1nc(C2CCC2)cc1-c1nc2cc(-c3ccccc3Cl)ccc2[nH]1` [Compound 39, 2-(5-Cyclobutyl-2-methyl-2H-pyrazol-3-yl)-5-(2-chlorophenyl)-1H-benzimidazole sodium salt], the IC50 came to 20 nM.

`CC(C)(C)c1cc(-c2nc3cc(-c4ccccc4C(F)(F)F)ccc3[nH]2)n(CCO)n1` [Compound 102, 2-{3-tert-Butyl-5-[5-(2-trifluoromethylphenyl)-1H-benzimidazol-2-yl]-pyrazol-1-yl}-ethanol hydrochloride]: the IC50 was 54.4 nM.

Regarding `Cn1nc(C(C)(C)C)c(Cl)c1-c1nc2cc(-c3c(F)cccc3C#N)cc(C(F)(F)F)c2[nH]1` [Compound 146, 2-[2-(5-tert-Butyl-4-chloro-2-methyl-2H-pyrazol-3-yl)-7-trifluoromethyl-1H-benzimidazol-5-yl]-3-fluoro-benzonitrile hydrochloride], the IC50 is 12.2 nM and 15 nM. Under setting [2], the inhibition at 0.2 µM was found to be 100%.

On to `FC(F)(F)Oc1ccccc1-c1ccc2[nH]c(-c3cc(Cl)no3)nc2c1` [Compound 34, 2-(3-Chloroisoxazol-5-yl)-5-(2-trifluoromethoxyphenyl)-1H-benzimidazole sodium salt], for which the IC50 was determined as 72.9 nM.

In the case of `Cc1c(C(C)(C)C)nn(C)c1-c1nc2cc(-c3c(F)cccc3C(F)(F)F)cc(C(F)(F)F)c2[nH]1` [Compound 119, 2-(5-tert-Butyl-2,4-dimethyl-2H-pyrazol-3-yl)-5-(2-fluoro-6-trifluoromethyl-phenyl)-7-trifluoromethyl-1H-benzimidazole hydrochloride], the half-maximal inhibitory concentration (IC50) was found to be 2 nM.

Turning to `Cc1oc(C(C)(C)C)nc1-c1nc2cc(-c3ccccc3F)cc(Cl)c2[nH]1` [Compound 161, 2-(2-tert-Butyl-5-methyl-oxazol-4-yl)-7-chloro-5-(2-fluoro-phenyl)-1H-benzimidazole hydrochloride], the inhibition at 0.2 µM under setting [2] was found to be 36%.

As for `CC(C)(C)c1cc(-c2nc3cc(-c4ccccc4Cl)ccc3[nH]2)on1` [Compound 68, 2-(3-tert-Butyl-isoxazol-5-yl)-5-(2-chloro-phenyl)-1H-benzimidazole trifluoroacetic acid salt], the IC50 was 14.8 nM and 16.3 nM.

On to `CC(C)n1nc(C(C)(C)C)cc1-c1nc2cc(-c3ccccc3C(F)(F)F)ccc2[nH]1` [Compound 46, 2-(5-tert-Butyl-2-isopropyl-2H-pyrazol-3-yl)-5-(2-trifluoromethylphenyl)-1H-benzimidazole sodium salt], for which the IC50 came out at 21 nM.

Regarding `Cc1c(C(C)(C)C)nn(C)c1-c1nc2cc(-c3c(F)cccc3OC(F)(F)F)cc(C(F)(F)F)c2[nH]1` [Compound 123, 2-(5-tert-Butyl-2,4-dimethyl-2H-pyrazol-3-yl)-5-(2-fluoro-6-trifluoromethoxy-phenyl)-7-trifluoromethyl-1H-benzimidazole hydrochloride], the IC50 is 7.9 nM.

For the compound `CCc1ccccc1-c1ccc2[nH]c(-c3cc(C(C)(C)C)nn3C)nc2c1` [Compound 56, 2-(5-tert-Butyl-2-methyl-2H-pyrazol-3-yl)-5-(2-ethyl-phenyl)-1H-benzimidazole trifluoroacetic acid salt], the IC50 is 10.7 nM.

For the compound `Cn1nc2c(c1-c1nc3cc(-c4ccccc4OC(F)(F)F)ccc3[nH]1)CCCC2(C)C` [Compound 31, 2,7,7-Trimethyl-3-[5-(2-trifluoromethoxyphenyl)-1H-benzimidazol-2-yl]-4,5,6,7-tetrahydro-2H-indazole sodium salt], the IC50 was found to be 84 nM.

As to `CC(C)c1cc(-c2nc3cc(-c4ccccc4)ccc3[nH]2)on1` [Compound 1, 2-(3-Isopropylisoxazol-5-yl)-5-phenyl-1H-benzimidazole sodium salt], the IC50 was determined as 111 nM.

Consider `Cn1nc(C(C)(C)C)cc1-c1nc2cc(-c3ccccc3F)ccc2[nH]1` [Compound 57, 2-(5-tert-Butyl-2-methyl-2H-pyrazol-3-yl)-5-(2-fluoro-phenyl)-1H-benzimidazole trifluoroacetic acid salt], for which the concentration for half-maximal inhibition (IC50) was 14.6 nM and 20.7 nM.

Consider `Cc1nc(C(C)(C)C)oc1-c1nc2cc(-c3ccccc3Cl)cc(C(F)(F)F)c2[nH]1` [Compound 179, 2-(2-tert-Butyl-4-methyl-oxazol-5-yl)-5-(2-chloro-phenyl)-7-trifluoromethyl-1H-benzimidazole hydrochloride], for which the inhibition at 0.2 µM under setting [2] was 18%.

In the case of `FC(F)(F)Oc1ccccc1-c1ccc2nc(-c3cc(C4CCCCC4)no3)[nH]c2c1` [Compound 25, 2-(3-Cyclohexylisoxazol-5-yl)-6-(2-trifluoromethoxyphenyl)-1H-benzimidazole hydrochloride], under setting [2], the inhibition at 0.2 µM amounted to 63%.

Consider `Cn1nc(C(C)(C)C)c(C#N)c1-c1nc2cc(-c3c(F)cccc3OC(F)(F)F)cc(Cl)c2[nH]1` [Compound 173, 3-tert-Butyl-5-[7-chloro-5-(2-fluoro-6-trifluoromethoxy-phenyl)-1H-benzimidazol-2-yl]-1-methyl-1H-pyrazole-4-carbonitrile sodium salt], for which the IC50 was found to be 10.7 nM. Under setting [2], the inhibition at 0.2 µM was determined as 100%.

Regarding `Cc1oc(C(C)(C)C)nc1-c1nc2cc(-c3ccccc3OC(F)(F)F)cc(Cl)c2[nH]1` [Compound 159, 2-(2-tert-Butyl-5-methyl-oxazol-4-yl)-7-chloro-5-(2-trifluoromethoxy-phenyl)-1H-benzimidazole hydrochloride], the inhibition at 0.2 µM under setting [2] is 19%.

Turning to `Cn1nc(C(C)(C)C)c(Cl)c1-c1nc2cc(-c3ccccc3Cl)cc(C(F)(F)F)c2[nH]1` [Compound 128, 2-(5-tert-Butyl-4-chloro-2-methyl-2H-pyrazol-3-yl)-5-(2-chloro-phenyl)-7-trifluoromethyl-1H-benzimidazole sodium salt], the 50% inhibitory concentration (IC50) was 2.7 nM and 5.1 nM. Under setting [2], the inhibition at 0.2 µM stood at 99%.

Regarding `Cn1nc2c(c1-c1nc3cc(-c4ccccc4Cl)ccc3[nH]1)CCCC2(C)C` [Compound 32, 3-[5-(2-Chlorophenyl)-1H-benzimidazol-2-yl]-2,7,7-trimethyl-4,5,6,7-tetrahydro-2H-indazole sodium salt], the IC50 turned out to be 21 nM.

For `Cn1nc(C(C)(C)C)cc1-c1nc2cc(-c3ccccc3OC(F)F)ccc2[nH]1` [Compound 81, 2-(5-tert-Butyl-2-methyl-2H-pyrazol-3-yl)-5-(2-difluoromethoxyphenyl)-1H-benzimidazole hydrochloride], the half-inhibitory concentration (IC50) is 2 nM and 7 nM.

For `CC(C)(C)c1nnc(-c2nc3cc(-c4ccccc4C(F)(F)F)cc(C(F)(F)F)c3[nH]2)o1` [Compound 190, 2-(5-tert-Butyl-[1,3,4]oxadiazol-2-yl)-7-trifluoromethyl-5-(2-trifluoromethyl-phenyl)-1H-benzimidazole sodium salt], the IC50 was determined as 30 nM.

These data come from patent publication US20120202856A1, “SUBSTITUTED BENZIMDAZOLE DERIVATIVES USEFUL AS TRPM8 RECEPTOR MODULATORS” (priority 2011, published 2012).
